The text below walks through data of US20050234113A1, “Antioxidant and radical scavenging activity of synthetic analogs of desferrithiocin” (University of Florida Research Foundation, Inc., priority 2002, published 2005).

Assay [1] in a line: Prevention of iron-mediated oxidation of ascorbate (ascorbate-mediated reduction of Fe(III)). To be noted: ascorbate 100 μM, FeCl3 30 μM, pH 7.4, ligand/Fe ratios 0-3, 40 min. The procedure: (§1) The iron chelators were tested for their ability to diminish the iron-mediated oxidation of ascorbate by the method of Dean and Nicholson (Free Radical Res. 20, 83-101 (1994)). Briefly, a solution of freshly prepared ascorbate (100 μM) in sodium phosphate buffer (5 mM, pH 7.4) was incubated in the presence of FeCl3 (30 μM) and chelator (ligand/Fe ratios varied from 0-3) for 40 min. The A265 was read at 10 and 40 min; the ΔA265 in the presence of ligand was compared to that in its absence.
The role of chelators in either inhibition or promotion of the Fenton reaction is related to their capacity to prevent Fe(III) from being reduced to Fe(II). Fe(II) is required for the reduction of H2O2 to HO. and HO^−. The assay involves spectrophotometrically monitoring the disappearance of ascorbate at pH 7.4 in the presence of FeCl3 and chelator at several ligand/Fe ratios. Under these conditions, ascorbate is oxidized to an L-ascorbyl radical anion. This anion then disproportionates to dehydroascorbic acid and ascorbate.
as §1, with “chelators nitrilotriacetic acid (NTA), 1,2-dimethyl-3-hydroxypyridin-4-one (L1), desferrioxamine B (DFO), (S)-4′-(HO)-DADMDFT, and (S,S)-1,11-Bis[5-(4-carboxyl-4,5-dihydro-1,3-thiazol-2-yl)-2,4-dihydroxyphenyl]-4,8-dioxaundecane (BDU)” for “chelators”, “Nicholson, Free” for “Nicholson (Free”, “20:” for “20,”, “(1994).” for “(1994)).”
The measurement examines the disappearance of ascorbate. It is known that DFO, a hydroxamate chelator that forms a 1:1 complex with Fe(III) at a formation constant of approximately 10^31 M^−1, prevents ascorbate-mediated reduction of Fe(III); it serves as a positive control in the present study. Both NTA and L1 promote ascorbate-mediated reduction of Fe(III) and serve as negative controls.

A short description of assay [2]: Quenching of the ABTS radical cation. How it is done:
The iron chelators were tested for their ability to quench the radical cation formed from 2,2′-azinobis(3-ethylbenzothiazoline-6-sulfonic acid) (ABTS) by the method of Re et al. in Free Radic. Biol. Med. 26, 1231-1237 (1999). Briefly, a stock solution of ABTS radical cation was generated by mixing ABTS (10 mM, 2.10 mL) with K2S2O8 (8.17 mM, 0.90 mL) in H2O and […] deep blue-green ABTS radical cation was diluted in sufficient sodium phosphate (10 mM, pH 7.4) to give an A734 of about 0.900. Test compounds were added to a final concentration ranging from 1.25 to 15 μM, and the decrease in A734 was read after 1, 2, 4 and 6 min. The reaction was largely complete by 1 min, but the data presented are based on a 6-min reaction time.
In this assay, a fairly stable radical cation, ABTS^+, was examined, and Trolox, an analog of vitamin E, was used as a positive control. Briefly, the procedure involved generating the blue-green chromophore by the reaction of ABTS with K2S2O8. The radical has absorption maxima at λ=415, 645, 734, and 815 nm. The change in absorbance at 734 nm was noted 6 min after addition of the chelator of interest at various concentrations, and the slope of the ΔA734 vs. ligand concentration line was calculated.
The iron chelators were tested for their ability to quench the radical cation formed from 2,2′-azinobis(3-ethylbenzothiazoline-6-sulfonic acid) (ABTS) by a published method (Re, R., et al., Free Radical Biol. Med. 26:1231-1237 (1999). Briefly, a stock solution of ABTS radical cation was generated by mixing ABTS (10 mM, 2.10 mL) with K2S2O8 (8.17 mM, 0.90 mL) in H2O and allowing the solution to sit in the dark at room temperature for 18 hours. This stock solution of deep blue-green ABTS radical cation was diluted in sufficient sodium phosphate (10 mM, pH 7.4) to give an A734 of about 0.900. Test compounds were added to a final concentration ranging from 1.25 to 15 μM, and the decrease in A734 was read after 1, 2, 4 and 6 min. The reaction was largely complete by 1 min, but the data presented are based on a 6-min. reaction time.
This radical cation decolorization assay utilizes the pre-formed radical monocation of 2,2′-azinobis(3-ethylbenzothiazoline-6-sulfonic acid) (ABTS) and has been used to evaluate the antioxidant capacity of a large number of compounds and mixtures. Briefly, the change in absorbance of the blue-green chromophore was recorded after the addition of the chelator of interest at each of the different concentrations, and the slope of the ΔA734 vs. ligand concentration line was calculated. The positive control for this reaction was Trolox, an analogue of vitamin E. The decrease in A734 as a function of ligand concentration is the comparitor among the five compounds evaluated. Trolox, L1, DFO, (S)-4′-(HO)-DADMDFT and BDU (Table 3). All four of the iron chelators performed better than Trolox; DFO≈BDU>(S)-4′-(HO)-DADMDFT>L1>Trolox. Thus, all of these ligands could be expected to serve as excellent radical scavengers.

The nature of assay [3]: Quenching of the ABTS radical cation. To be noted: Table 5; 6-min reaction, initial OD 1.000.
The subject of assay [4] is acetic acid-induced colitis. Description: Acetic acid-induced colitis in rats, densitometric image analysis of colonic damage. The format is in vivo. How it is done:
(§2) The ligands were administered to the rats intracolonically as a suspension or solution in distilled water (2 mL) at a dose of 650 μmol kg^−1. The drug solutions were made fresh for each experiment. ROWASA®, the pharmaceutical preparation which contains 5-ASA (2 mL, 66.7 mg mL^−1) was given at a dose of 2318 μmol kg^−1. Control rats received distilled water (2 mL), administered intracolonically.
(§3) Animal care and experimental procedures were approved by the Institutional Animal Care and Use Committee. Colitis was induced by a modification of published methods. Briefly, the rats were anesthetized with sodium pentobarbital, 55 mg kg^−1 intraperitoneally. The abdomen was shaved and prepared for surgery. A midline incision was made, and the cecum and proximal colon were exteriorized. A reversible suture was placed at the junction of the cecum and proximal colon. The colon was rinsed with saline (10 mL), and the fluid and intestinal contents were gently expressed out the rectum. A gum-based rectal plug was inserted. The compound of interest, or distilled water in the control animals (2 mL), was injected intracolonically just distal to the ligature. The cecum and proximal colon were returned to the abdominal cavity; the compound was allowed to remain in the gut for 30 min. Then, the cecum and proximal colon were reexteriorized. The rectal plug was removed, and the drug was gently expressed out of the colon. Acetic acid (4%, 2 mL) was injected into the proximal colon over a 15-20-second time period. The acid was allowed to remain in the gut until one minute had passed (i.e., 40-45 seconds after the end of the acid administration). The no acid control rats received distilled water (2 mL), which was administered in the same manner as was the acetic acid. Air (10 mL) was then injected into the proximal colon to expel the acid or water. The cecal/proximal colon ligature was removed, the gut was returned to the abdominal cavity, and the incisions were closed. The animals were allowed to recover overnight and were sacrificed 24 hr later. The entire length of the colon was removed and assessed for damage both densitometrically and biochemically.
Gross damage was quantitated using Photoshop-based image analysis (version 5.0, Adobe Systems, Mountain View, Calif., USA) on an Apple iMac computer. The Magic Wand tool in the Select menu of Photoshop was used to place the cursor on an area of obvious damage. The tolerance level of the Magic Wand tool was set at 30. The damaged areas were automatically selected by using the Similar command in the Select menu. Then, the Eyedropper tool was used to determine the range of the damage in the highlighted areas. Individual colon images were copied to a blank Photoshop page. The Magic Wand tool, with a tolerance set to 100, was used to select all of the pixels in the colon sample. Then, the Histogram tool, which generates a graph in which each vertical line represents the number of pixels associated with a brightness level, was selected in the Image menu. The Red channel was then selected; the darker (damaged areas) appear on the left side of the histogram and the lighter (normal) areas are on the right side. The cursor was then placed on the histogram, the color range determined in an earlier step was selected, and the number of pixels encompassing that range and the percent damage were quantified automatically.
Two means were employed to assess the damage to the colon in the presence and absence of ligand, computer-based image analysis and colonic MPO measurement. The densitometric method removes much of the subjectivity involved in the simple scoring approaches. A digital image of the prepared colonic tissue is taken, and a clearly damaged segment is highlighted on the screen. Once the computer identifies all other segments of the intestine with the same or greater damage, a pixel number is generated; this number makes it possible to calculate the percentage of damaged intestine.

In assay [5] the test system is Myeloperoxidase (MPO) activity in colonic tissue. The assay can be described thus: Myeloperoxidase (MPO) assay in colonic tissue of rats with acetic acid-induced colitis. The format is in vivo. To be noted: 650 μmol kg^−1 intracolonically 30 min before 4% acetic acid, mean ± standard deviation. How it is done: as §2, §3
The activity of MPO was measured in colonic tissue by a modification of the method of Krawisz et al. in Gastroenterology 87, 1344-1350 (1984). Each excised colon was homogenized in 9 volumes of homogenization buffer (0.5% hexadecyltrimethylammonium bromide (HDTMA) in 50 mM sodium acetate, pH 6.0); this homogenate was centrifuged at 1200 g for 20 min at 4° C. A sample of the supernatant (1.8 mL) was transferred into a microcentrifuge tube and stored frozen at −20° C. for up to one week. Prior to assay, the thawed aliquot was centrifuged at about 10,000 g for 15 minutes at 4° C. The final supernatant (33 μL) was added to a solution of o-dianisidine HCl (0.17 mg mL^−1 in 50 mM sodium acetate, pH 6.0, made fresh daily and filtered immediately before use) (950 μL), the mixture was vortexed, and the peroxidase reaction was initiated by the addition of H2O2 to 50 mM sodium acetate, pH 6.0, made fresh daily (16.7 μL). The A470 at room temperature (ca. 23° C.) was read at 15-second intervals for 2 min. The rates were assessed graphically and are presented as change in milliabsorbance units (ΔmAU)/min per g tissue. Under these conditions, 0.1 “Unit” of purified human leukocyte myeloperoxidase (Sigma M-6908) produced a ΔA470 of about 400 mAU/min.
The biochemical measurement involves measuring the level of MPO in a sample of homogenate of the whole rat colon. When the colon is damaged by the acetic acid, there is an extravasation of neutrophils. The extent of this infiltration can serve as a quantitative marker for tissue damage. Although other leukocytes, such as eosinophils and monocytes, also contribute to the inflammatory response, their contribution is small; the majority of the cells recruited during the acute inflammatory response are neutrophils. […]

Another assay deals with iron-loaded hepatocytes. To be noted: cited from earlier work.
The mark [6] stands for this setting: Table 1, A734, six-minute reaction, pH 7.4, 1.25 to 15 μM.

Entries after “also recorded” stand apart in the source; their conditions may differ. Marks after values point to notes of the source that are not given here.

With `COc1ccc(C2=N[C@@H](C(=O)O)CS2)c(O)c1` [4′-(CH3O)-DADMDFT, 4′-methoxydesazadesmethyldesferrithiocin], the “effect on ascorbate-mediated reduction of Fe(III) (in words)” value in assay [1] is on record as “slowed Fe(III) reduction considerably”. For the same molecule, in assay [2] (method of Example 6), the “radical trapping compared with Trolox (in words)” value is “as effective as Trolox”. Further, the “Slope × 10^3 OD units/μM (ABTS radical cation quenching)” value (“Slope × 10^3 OD units/μM” below) in assay [3] is listed as −33 × 10^3 OD units/μM.

With `C[C@]1(C(=O)O)CSC(c2ccc(O)cc2O)=N1` [4′-(HO)-DADFT], the figures for the “Slope × 10^3 OD units/μM” value in assay [2] (setting [6]) and in assay [3] were −105.6 × 10^3 OD units/μM and −106 × 10^3 OD units/μM, respectively. Also, the “Damage (%)” value in assay [4] (650 μmol kg^−1 intracolonically 30 min before 4% acetic acid, mean ± standard deviation) worked out at 62 ± 10%. In assay [4] (intracolonic, image analysis and MPO assay), the “protection against acetic acid-induced colonic damage (in words)” value was “did not protect”. Further, the MPO activity in assay [5] is given as 64192 ± 30802 mAU min^−1g of colonic tissue^−1.

As for `Cc1c(O)c(=O)ccn1C` [Compound L1, 1,2-Dimethyl-3-hydroxypyridin-4-one, reference compound], the results for the “effect on ascorbate-mediated reduction of Fe(III) (in words)” value in assay [1] and in assay [1] (listed as 1,2-dimethyl-3-hydroxypyridin-4-one) were “promoted the reaction; also recorded: promoted ascorbate-mediated reduction of Fe(III)” and “increased the rate of iron(III) reduction”, respectively. The “Slope × 10^3 OD units/μM” value was −52.9 × 10^3 OD units/μM in assay [2] (setting [6]) and −53^b × 10^3 OD units/μM in assay [2] (Table 3, A734, 6-min reaction, values marked b are the inventors' unpublished results). Besides, in the assay with iron-loaded hepatocytes, the “effect on iron-mediated oxidative DNA damage (in words)” value is listed as “potentiated iron-mediated oxidative DNA damage”.

On to `C[C@]1(C(=O)O)CSC(c2ncccc2O)=N1` [DFT, desferrithiocin], for which the “Slope × 10^3 OD units/μM” value in assay [2] (setting [6]) was −0.9 × 10^3 OD units/μM. Also, in the assay with iron-loaded hepatocytes, the “effect on iron-mediated oxidative DNA damage (in words)” value is listed as “prevented damage”.
